Laboratory results reported in patent US20230100235A1, “ANTICANCER AGENT COMPOSITION” (CARNA BIOSCIENCES, INC., priority 2020, published 2023).

Assays:
[1] = system: OCI-Ly10 cells; assay: Combined effect of BTK inhibitor and BCL-2 inhibitor by BLISS score, OCI-Ly10; assay type: cell-based, Human; conditions: combination with venetoclax, 8×8 matrix, positive = synergistic
Procedure: The BLISS score is one of the criteria used to evaluate synergistic effects in combination of agents (Borisy et al. Proc. Natl. Acad. Sci. USA., 100(13): 7977-7982 (2003); Griner et al. Proc. Natl. Acad. Sci. USA., 111(6): 2349-54 (2014)). This BLISS score was used to analyze the combined effect of a BTK inhibitor and a BCL-2 inhibitor in terms of proliferation inhibition to OCI-Ly10 cells.
After 96 hours of culture, an Alamar Blue reagent was added, and 3 hours later, fluorescence of excitation wavelength 560 nm/fluorescence wavelength 590 nm was measured. Cell proliferation inhibition rate and viability (100−inhibition rate %) were determined by setting a compound-free and cell-free well as 100% and a compound-free and cell-containing well as 0%.
Theoretical BLISS independence (BLISSin) for each well can be calculated from the following formula when agent A and agent B each are thought to have acted as a single agent (i.e., cell proliferation rate when the concentration of either one compound is 0). G is cell viability.
BLISS score for each well can be derived from a difference between the theoretical BLISSin and a measured value of cell proliferation rate. If the BLISS score is a positive number, it is considered that a synergistic effect is present.
BLISS score=100×(BLISSin−G)

[2] = system: U2932 cells; assay: Dose-response study of BTK inhibitor in the presence of BCL-2 inhibitor, U2932; assay type: cell-based; conditions: Homo sapiens, read-out: Inhibitory activity on cell proliferation U2932 IC50
Procedure: (§1) The OCI-Ly10 or U2932 cells (20000 cells/well) were seeded into 96-well plates (cell plates), to which the test compound diluted with the medium was added at final concentrations of 0.009 nM to 30000 nM (a final DMSO concentration of 0.3%), and after 96 hours of culture, an Alamar Blue reagent (Thermo Fisher Scientific Inc.) was added. After 3 hours, the fluorescence of excitation wavelength 560 nm/fluorescence wavelength 590 nm was measured and IC50 values of inhibitory activity were determined by setting a compound-free and cell-free well as 100% and a compound-free and cell-containing well as 0%.
(§2) Changes in IC50 values of the BTK inhibitor in the presence of the BCL-2 inhibitor at various concentrations were examined.
From the result obtained for the BCL-2 inhibitor used as a single agent, BCL-2 inhibitor concentrations for three doses were selected for each cancer cell line.

[3] = system: BTK-C481S-mutant OCI-Ly10 cells; assay: Dose-response study of BTK inhibitor in the presence of BCL-2 inhibitor, BTK-C481S-mutant OCI-Ly10; assay type: cell-based; conditions: Homo sapiens, read-out: Inhibitory activity on cell proliferation OCI-Ly10 BTK-C481S IC50
Procedure: (§3) BTK-C481S-mutant OCI-Ly10 cells were produced by point mutation knock-in using the CRISPR-Cas9 system. Cas9 protein (Thermo Fisher Scientific Inc.), guide RNA prepared with GeneArt™ Precision gRNA Synthesis Kit (Thermo Fisher Scientific Inc.), and a single-stranded synthetic oligonucleotide to replace 481st cysteine residue of BTK with a serine residue were introduced into OCI-Ly10 cells by an electroporation method. The resulting modified OCI-Ly10 cells were cultured in the presence of ibrutinib, and the grown cells were used as BTK-C481S-mutant OCI-Ly10 cells. Transduction of the mutation was confirmed by genomic DNA and mRNA sequence analysis.
BTK-C481S-mutant lymphoma cells were used to examine changes in IC50 values of the BTK inhibitor in the presence of various concentrations of BCL-2 inhibitor.
From the results obtained for the BCL-2 inhibitor used as a single agent, BCL-2 inhibitor concentrations for three doses were selected for BTK-C481-mutant OCI-Ly10 cells.

[4] = system: U2932 cells; assay: Cell proliferation suppression test of single agents, U2932 (Alamar Blue, 96 h); assay type: cell-based, Human; conditions: Homo sapiens, U2932, single agent, read-out: Inhibitory Activity on cell proliferation IC50 U2932
Procedure: Human lymphoma cell line U2932 cells (obtained from DSMZ) were cultured in a 5% CO2 incubator using RPMI medium (Roswell Park Memorial Institute medium, Thermo Fisher Scientific Inc.) containing 10% fetal bovine serum (GE Healthcare) and 1% penicillin streptomycin (NACALAI TESQUE, INC.).
as §1

[5] = system: OCI-Ly10 cells; assay: Cell proliferation suppression test of single agents, OCI-Ly10 (Alamar Blue, 96 h); assay type: cell-based, Human; conditions: Homo sapiens, OCI-Ly10, single agent, read-out: Inhibitory Activity on cell proliferation IC50 OCI-Ly10
Procedure: Human lymphoma cell line OCI-Ly10 cells (obtained from University Health Network) were cultured in a 5% CO2 incubator using IMDM medium (Iscove's Modified Dulbecco's Medium, Thermo Fisher Scientific Inc.) containing 20% fetal bovine serum (GE Healthcare) and 1% penicillin streptomycin (NACALAI TESQUE, INC.).
as §1

[6] = system: OCI-Ly10 cells; assay: Dose-response study of BTK inhibitor in the presence of BCL-2 inhibitor, OCI-Ly10; assay type: cell-based; conditions: Homo sapiens, read-out: Inhibitory activity on cell proliferation OCI-Ly10 IC50
Procedure: as §1, §2

[7] = system: BTK-C481S-mutant OCI-Ly10 cells; assay: Cell proliferation suppression test of single agents, BTK-C481S-mutant OCI-Ly10; assay type: cell-based, Human; conditions: Homo sapiens, OCI-Ly10; single agent; read-out: Inhibitory activity on cell proliferation OCI-Ly10 BTK-C481S IC50
Procedure: as §1, §3
In the same manner as in Test Example 1, IC50 values for each inhibitor single agent were determined.

[8] = OCI-Ly10, in the presence of S-55746 10 nM
[9] = OCI-Ly10, in the presence of S-55746 30 nM
[10] = OCI-Ly10, in the presence of S-55746 100 nM
[11] = OCI-Ly10, in the presence of navitoclax 10 nM
[12] = OCI-Ly10, in the presence of navitoclax 30 nM
[13] = OCI-Ly10, in the presence of navitoclax 100 nM
[14] = OCI-Ly10, in the presence of obatoclax mesylate 50 nM
[15] = OCI-Ly10, in the presence of obatoclax mesylate 100 nM
[16] = OCI-Ly10, in the presence of obatoclax mesylate 200 nM
[17] = OCI-Ly10, in the presence of venetoclax 1 nM
[18] = OCI-Ly10, in the presence of venetoclax 3 nM
[19] = OCI-Ly10, in the presence of venetoclax 10 nM
[20] = OCI-Ly10, obatoclax mesylate 0 nM

Nc1nc(-c2cccc(-n3ccc4cc(C5CC5)cc(F)c4c3=O)c2CO)c2cc(C3=CCN(C4COC4)CC3)[nH]c2n1 [Compound (I-A), 2-(3-{2-amino-6-[1-(oxetan-3-yl)-1,2,3,6-tetrahydropyridin-4-yl]-7H-pyrrolo[2,3-d]pyrimidin-4-yl}-2-(hydroxymethyl)phenyl)-6-cyclopropyl-8-fluoroisoquinolin-1(2H)-one]
BLISS score [1]: positive values | IC50 ([2]; U2932, S-55746 0 nM): > 30 µM | IC50 ([2]; U2932, in the presence of S-55746 100 nM): 3.48 µM | IC50 ([2]; U2932, in the presence of S-55746 300 nM): 0.48 µM | IC50 ([2]; U2932, in the presence of S-55746 1000 nM): 0.022 µM | IC50 ([2]; U2932, in the presence of navitoclax 30 nM): 12 µM | IC50 ([2]; U2932, in the presence of navitoclax 100 nM): 1.95 µM | IC50 ([2]; U2932, in the presence of navitoclax 300 nM): 0.023 µM | IC50 ([2]; U2932, in the presence of obatoclax mesylate 50 nM): 19.6 µM | IC50 ([2]; U2932, in the presence of obatoclax mesylate 100 nM): 13.5 µM | IC50 ([2]; U2932, in the presence of venetoclax 3 nM): 4.8 µM | IC50 ([2]; U2932, in the presence of venetoclax 10 nM): 1.1 µM | IC50 ([2]; U2932, in the presence of venetoclax 100 nM): 0.014 µM | IC50 ([2]; U2932, navitoclax 0 nM): 28.5 µM | IC50 ([2]; U2932, obatoclax mesylate 0 nM): 25.9 µM | IC50 ([2]; U2932, venetoclax 0 nM): 13.6 µM | IC50 ([3]; OCI-Ly10, S-55746 0 nM): 11 nM | IC50 [3, 8]: 7.9 nM | IC50 [3, 9]: 5.2 nM | IC50 [3, 10]: 3.1 nM | IC50 [3, 11]: 12 nM | IC50 [3, 12]: 8.2 nM | IC50 [3, 13]: 4.1 nM | IC50 [3, 14]: 5.4 nM | IC50 [3, 15]: 4.4 nM | IC50 [3, 16]: 4 nM | IC50 [3, 17]: 10 nM | IC50 [3, 18]: 6.9 nM | IC50 [3, 19]: 4.8 nM | IC50 ([3]; OCI-Ly10, navitoclax 0 nM): 15 nM | IC50 [3, 20]: 16 nM | IC50 ([3]; OCI-Ly10, venetoclax 0 nM): 15 nM | IC50 [4]: 12.5 µM | IC50 [5]: 2 nM | IC50 ([6]; OCI-Ly10, S-55746 0 nM): 2.1 nM | IC50 [6, 8]: 1.3 nM | IC50 [6, 9]: 1.1 nM | IC50 [6, 10]: 0.6 nM | IC50 [6, 11]: 1.4 nM | IC50 [6, 12]: 1.1 nM | IC50 [6, 13]: 0.8 nM | IC50 [6, 14]: 0.9 nM | IC50 [6, 15]: 0.9 nM | IC50 [6, 16]: 0.9 nM | IC50 [6, 17]: 1.5 nM | IC50 [6, 18]: 1.5 nM | IC50 [6, 19]: 1.3 nM | IC50 [6, 20]: 1.2 nM | IC50 ([6]; OCI-Ly10, venetoclax 0 nM): 2.1 nM | IC50 [7]: 15 nM
